Source: patent US20140142155A1, “METHOD OF TREATING THROMBOCYTOPENIA” (GlaxoSmithKline LLC, priority 2008, published 2014)
“Also recorded” adds a separate entry of the source. Like-named read-outs stand apart in the source and are kept apart here.

Columns and labels:
[1] = Solubility; assay type: physicochemical
[2] = tested on: rats; assay: In vivo micronucleus assay; conditions: rat micronucleus, 11 times human clinical exposure (Cmax)
[3] = target: T1, OATP1B1 (Homo sapiens, UniProt Q9Y6L6); assay: Transporter substrate assessment; assay type: in vitro ADME
T1 sequence (Q9Y6L6 whole entry): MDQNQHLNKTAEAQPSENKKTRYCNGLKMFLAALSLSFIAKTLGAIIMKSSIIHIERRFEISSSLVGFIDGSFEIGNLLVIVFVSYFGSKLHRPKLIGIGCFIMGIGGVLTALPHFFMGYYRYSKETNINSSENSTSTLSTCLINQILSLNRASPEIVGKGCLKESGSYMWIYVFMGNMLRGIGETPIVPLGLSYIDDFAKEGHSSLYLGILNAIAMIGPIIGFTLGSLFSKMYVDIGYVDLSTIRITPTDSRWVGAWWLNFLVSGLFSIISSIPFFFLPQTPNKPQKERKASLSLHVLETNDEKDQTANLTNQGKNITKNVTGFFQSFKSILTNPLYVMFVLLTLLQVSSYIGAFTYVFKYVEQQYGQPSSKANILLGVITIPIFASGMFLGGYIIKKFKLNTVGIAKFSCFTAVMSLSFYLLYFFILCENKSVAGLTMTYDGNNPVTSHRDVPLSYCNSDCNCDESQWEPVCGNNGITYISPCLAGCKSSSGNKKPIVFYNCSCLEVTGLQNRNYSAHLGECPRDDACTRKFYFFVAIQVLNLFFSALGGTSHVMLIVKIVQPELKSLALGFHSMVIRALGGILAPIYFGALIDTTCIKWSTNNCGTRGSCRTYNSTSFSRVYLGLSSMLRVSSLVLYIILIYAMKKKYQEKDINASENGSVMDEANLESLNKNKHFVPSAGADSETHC

[4] = tested on: mouse lymphoma; assay: In vitro mouse lymphoma assay; assay type: cell-based
[5] = tested on: pregnant rabbits; conditions: oral 30, 80, or 150 mg/kg/day (0.1, 0.3, 0.6 times human clinical exposure, AUC)
[6] = tested on: bacterial; assay: Bacterial mutation assay
[7] = In vitro phototoxicity and photoclastogenicity; assay type: cell-based
[8] = tested on: rabbits; assay: Toxicology in rabbits; assay type: in vivo, rabbit; conditions: 1.4 times human clinical exposure (AUC)
[9] = target: T1, OATP1B1; assay: In vitro OATP1B1 inhibition; assay type: in vitro ADME
[10] = tested on: mice; conditions: mouse, in vivo
[11] = tested on: female rats; assay: Early embryonic development study; assay type: in vivo, rat; conditions: highest dose, 7 times human clinical exposure (AUC); maternally toxic
[12] = tested on: rats; conditions: rat, in vivo
[13] = tested on: rats; assay: In vivo unscheduled DNA synthesis assay; conditions: rat unscheduled DNA synthesis, 11 times human clinical exposure (Cmax)
[14] = tested on: mice; conditions: mouse, in vivo; remark: listed apart in the source
[15] = tested on: rats; assay: Fertility studies in rats; assay type: in vivo, rat
[16] = target: T2, UGT1A1 (Homo sapiens, UniProt P22309); assay: In vitro glucuronidation; assay type: in vitro ADME
T2 sequence (P22309 26-533): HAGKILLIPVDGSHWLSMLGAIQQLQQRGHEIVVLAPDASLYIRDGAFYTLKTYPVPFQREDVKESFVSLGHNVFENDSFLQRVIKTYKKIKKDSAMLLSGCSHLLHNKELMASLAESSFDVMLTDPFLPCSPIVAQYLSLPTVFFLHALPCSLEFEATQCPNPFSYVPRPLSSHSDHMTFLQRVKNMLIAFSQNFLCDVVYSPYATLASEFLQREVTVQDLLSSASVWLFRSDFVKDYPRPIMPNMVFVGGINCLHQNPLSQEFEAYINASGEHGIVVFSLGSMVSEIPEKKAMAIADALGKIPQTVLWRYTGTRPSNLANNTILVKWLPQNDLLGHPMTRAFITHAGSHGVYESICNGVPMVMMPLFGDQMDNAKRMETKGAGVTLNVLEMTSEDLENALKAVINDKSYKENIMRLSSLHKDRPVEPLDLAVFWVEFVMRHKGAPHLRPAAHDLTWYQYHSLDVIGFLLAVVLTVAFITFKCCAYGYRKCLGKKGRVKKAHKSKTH

[17] = Pharmacokinetics by race and gender; assay type: in vivo, human
[18] = tested on: pregnant rats; conditions: rat, in vivo
[19] = tested on: mice; assay: In vivo cutaneous phototoxicity; parameters: species or system mouse; conditions: up to 11 times human clinical exposure (AUC)
[20] = tested on: rats; conditions: rat, in vivo; remark: listed apart in the source
[21] = Clinical pharmacokinetics: absorption, distribution, metabolism, elimination (incl. radiolabel study); assay type: in vivo, human; conditions: for half-life: plasma, oral
Protocol: Based on urinary excretion and biotransformation products eliminated in feces, the oral absorption of drug-related material following administration of a single 75 mg solution dose was estimated to be at least 52%.
Metabolites due to glucuronidation and oxidation were also detected.

[22] = target: T3, CYP2C8 (Homo sapiens, UniProt P10632); assay: In vitro oxidative metabolism; assay type: in vitro ADME
T3 sequence (P10632 whole entry): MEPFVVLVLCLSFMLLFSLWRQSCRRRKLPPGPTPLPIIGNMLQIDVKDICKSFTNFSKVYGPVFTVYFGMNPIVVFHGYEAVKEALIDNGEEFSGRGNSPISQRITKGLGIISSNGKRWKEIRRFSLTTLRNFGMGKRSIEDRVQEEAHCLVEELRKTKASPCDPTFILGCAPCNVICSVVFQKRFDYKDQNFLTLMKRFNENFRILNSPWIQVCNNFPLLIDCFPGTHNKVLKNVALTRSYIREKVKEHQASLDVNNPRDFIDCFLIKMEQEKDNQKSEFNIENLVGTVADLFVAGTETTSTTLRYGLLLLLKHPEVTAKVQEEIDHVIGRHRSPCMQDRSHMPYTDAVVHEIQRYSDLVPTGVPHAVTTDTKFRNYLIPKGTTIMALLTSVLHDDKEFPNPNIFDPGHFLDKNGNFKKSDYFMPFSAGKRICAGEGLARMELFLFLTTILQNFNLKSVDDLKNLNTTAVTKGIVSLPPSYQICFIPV

[23] = Food effect open-label randomized crossover study; assay type: in vivo, human; conditions: standard high-fat breakfast
Excerpt: The calcium content of this meal may have also contributed to this decrease in exposure.

[24] = tested on: mice; assay: 2-year oral carcinogenicity study in mice; conditions: 2-year study, lowest dose (25 mg/kg/day)
[25] = tested on: rats; assay: Platelet production in animals; assay type: in vivo, rat
[26] = tested on: human plasma proteins; assay: In vitro plasma protein binding; assay type: in vitro ADME
[27] = tested on: dogs; assay: Platelet production in animals; assay type: in vivo, dog
[28] = target: p-glycoprotein (Pgp) (Homo sapiens, UniProt P08183); assay: Transporter substrate assessment; assay type: in vitro ADME
Sequence of p-glycoprotein (Pgp) (P08183 whole entry): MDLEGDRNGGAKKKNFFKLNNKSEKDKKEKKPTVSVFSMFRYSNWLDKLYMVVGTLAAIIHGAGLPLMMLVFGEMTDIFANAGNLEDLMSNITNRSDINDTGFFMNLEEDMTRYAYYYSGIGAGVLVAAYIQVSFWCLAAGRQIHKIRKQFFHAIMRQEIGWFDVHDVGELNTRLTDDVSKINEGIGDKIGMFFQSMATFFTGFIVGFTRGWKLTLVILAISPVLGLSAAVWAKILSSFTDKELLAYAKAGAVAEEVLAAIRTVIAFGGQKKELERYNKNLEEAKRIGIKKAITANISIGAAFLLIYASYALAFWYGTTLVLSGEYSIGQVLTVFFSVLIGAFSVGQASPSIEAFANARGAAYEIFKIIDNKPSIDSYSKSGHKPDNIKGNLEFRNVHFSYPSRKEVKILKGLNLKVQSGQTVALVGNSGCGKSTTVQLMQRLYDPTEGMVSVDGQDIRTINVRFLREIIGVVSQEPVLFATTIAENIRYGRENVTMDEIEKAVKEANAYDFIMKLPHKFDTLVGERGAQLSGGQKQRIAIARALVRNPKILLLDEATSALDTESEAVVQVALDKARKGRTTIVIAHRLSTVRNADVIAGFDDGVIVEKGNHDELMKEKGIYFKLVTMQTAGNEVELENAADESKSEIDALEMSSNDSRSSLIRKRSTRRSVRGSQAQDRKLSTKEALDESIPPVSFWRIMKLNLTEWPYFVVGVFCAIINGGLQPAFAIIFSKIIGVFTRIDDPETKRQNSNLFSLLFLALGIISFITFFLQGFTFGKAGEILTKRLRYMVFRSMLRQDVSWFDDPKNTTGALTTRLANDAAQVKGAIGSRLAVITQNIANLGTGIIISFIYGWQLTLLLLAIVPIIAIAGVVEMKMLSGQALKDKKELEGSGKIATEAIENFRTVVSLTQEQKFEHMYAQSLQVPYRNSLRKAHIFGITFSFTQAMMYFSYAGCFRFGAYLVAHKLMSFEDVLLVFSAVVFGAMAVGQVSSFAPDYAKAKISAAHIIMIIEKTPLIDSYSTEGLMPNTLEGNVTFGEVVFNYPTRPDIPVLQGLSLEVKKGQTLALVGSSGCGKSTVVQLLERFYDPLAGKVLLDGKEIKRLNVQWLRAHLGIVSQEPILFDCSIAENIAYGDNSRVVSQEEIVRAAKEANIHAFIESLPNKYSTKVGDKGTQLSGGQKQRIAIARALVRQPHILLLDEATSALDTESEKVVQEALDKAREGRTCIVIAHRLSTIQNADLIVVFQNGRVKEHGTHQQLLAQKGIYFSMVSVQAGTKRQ

[29] = target: CYP2C9 (Homo sapiens, UniProt P11712); assay: In vitro CYP inhibition (diclofenac probe); assay type: in vitro ADME; conditions: diclofenac probe substrate
Excerpt: (§1) Probe substrates for CYP2C8 were not evaluated in this study.

[30] = tested on: pregnant rats (F0); assay: Pre- and post-natal developmental toxicity study; assay type: in vivo, rat
[31] = tested on: dogs; conditions: dog, in vivo
[32] = target: UGT1A4 (Homo sapiens, UniProt P22310); assay: In vitro UGT inhibition; assay type: in vitro ADME
Excerpt: (§2) Monitor patients closely for signs or symptoms of excessive exposure to these drugs when concomitantly administered with Promacta®.

[33] = target: UGT1A9 (Homo sapiens, UniProt O60656); assay: In vitro UGT inhibition; assay type: in vitro ADME
Sequence of UGT1A9 (O60656 26-530): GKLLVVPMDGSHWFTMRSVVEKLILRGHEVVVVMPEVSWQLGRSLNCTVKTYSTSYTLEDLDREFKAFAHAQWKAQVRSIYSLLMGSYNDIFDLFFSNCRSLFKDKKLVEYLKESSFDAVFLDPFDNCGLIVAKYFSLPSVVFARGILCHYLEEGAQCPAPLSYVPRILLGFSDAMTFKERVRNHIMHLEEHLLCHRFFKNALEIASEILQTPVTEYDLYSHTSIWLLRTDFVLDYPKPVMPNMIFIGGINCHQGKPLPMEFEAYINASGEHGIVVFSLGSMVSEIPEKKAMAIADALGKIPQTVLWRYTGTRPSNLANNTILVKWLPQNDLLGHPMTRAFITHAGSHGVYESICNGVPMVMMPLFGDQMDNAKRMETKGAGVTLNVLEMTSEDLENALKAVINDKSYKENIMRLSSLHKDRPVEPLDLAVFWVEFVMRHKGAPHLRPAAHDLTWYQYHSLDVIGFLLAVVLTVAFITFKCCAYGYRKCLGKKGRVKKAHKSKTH
Excerpt: as §2

[34] = target: T2, UGT1A1; assay: In vitro UGT inhibition; assay type: in vitro ADME
Excerpt: as §2

[35] = target: UGT1A6 (Homo sapiens, UniProt P19224); assay: In vitro UGT inhibition; assay type: in vitro ADME
Excerpt: as §2

[36] = target: UGT2B15 (Homo sapiens, UniProt P54855); assay: In vitro UGT inhibition; assay type: in vitro ADME
Sequence of UGT2B15 (P54855 24-530): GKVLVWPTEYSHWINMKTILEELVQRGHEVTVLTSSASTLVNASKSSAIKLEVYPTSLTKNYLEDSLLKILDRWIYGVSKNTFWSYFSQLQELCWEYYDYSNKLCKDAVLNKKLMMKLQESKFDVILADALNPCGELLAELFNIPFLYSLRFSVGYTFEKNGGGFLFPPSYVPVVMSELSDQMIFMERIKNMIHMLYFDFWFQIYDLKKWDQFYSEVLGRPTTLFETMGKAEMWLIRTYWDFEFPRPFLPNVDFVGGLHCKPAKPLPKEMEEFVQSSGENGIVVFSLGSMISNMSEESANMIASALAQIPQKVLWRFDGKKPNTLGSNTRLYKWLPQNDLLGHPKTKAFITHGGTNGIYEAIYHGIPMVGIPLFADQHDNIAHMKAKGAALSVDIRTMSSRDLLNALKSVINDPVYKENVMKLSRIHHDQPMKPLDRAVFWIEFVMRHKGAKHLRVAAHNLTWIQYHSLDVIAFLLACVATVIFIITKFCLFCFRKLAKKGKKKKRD
Excerpt: as §2

[37] = target: T4, UGT1A3 (Homo sapiens, UniProt P35503); assay: In vitro UGT inhibition; assay type: in vitro ADME
T4 sequence (P35503 29-534): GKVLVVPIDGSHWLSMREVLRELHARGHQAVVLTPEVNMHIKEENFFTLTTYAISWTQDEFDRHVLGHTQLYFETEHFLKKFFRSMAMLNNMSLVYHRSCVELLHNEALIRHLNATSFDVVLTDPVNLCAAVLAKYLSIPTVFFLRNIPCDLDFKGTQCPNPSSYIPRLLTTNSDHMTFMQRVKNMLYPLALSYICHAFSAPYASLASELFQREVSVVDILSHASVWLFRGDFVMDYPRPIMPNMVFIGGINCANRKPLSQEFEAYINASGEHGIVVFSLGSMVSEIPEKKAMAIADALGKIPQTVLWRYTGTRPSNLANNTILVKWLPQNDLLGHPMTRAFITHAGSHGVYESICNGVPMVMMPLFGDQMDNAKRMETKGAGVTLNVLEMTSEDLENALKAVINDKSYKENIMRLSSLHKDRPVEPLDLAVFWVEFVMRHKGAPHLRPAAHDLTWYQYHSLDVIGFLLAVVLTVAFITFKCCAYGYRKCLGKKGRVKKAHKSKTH
Excerpt: as §2

[38] = target: UGT2B7 (Homo sapiens, UniProt P16662); assay: In vitro UGT inhibition; assay type: in vitro ADME
Excerpt: as §2

[39] = tested on: mice; assay: Platelet production in animals; assay type: in vivo, mouse
[40] = target: T4, UGT1A3; assay: In vitro glucuronidation; assay type: in vitro ADME
[41] = target: T3, CYP2C8; assay: In vitro CYP inhibition (paclitaxel probe); assay type: in vitro ADME; conditions: paclitaxel probe substrate
Excerpt: as §1

[42] = target: CYP1A2 (Homo sapiens, UniProt P05177); assay: In vitro oxidative metabolism; assay type: in vitro ADME
Sequence of CYP1A2 (P05177 whole entry): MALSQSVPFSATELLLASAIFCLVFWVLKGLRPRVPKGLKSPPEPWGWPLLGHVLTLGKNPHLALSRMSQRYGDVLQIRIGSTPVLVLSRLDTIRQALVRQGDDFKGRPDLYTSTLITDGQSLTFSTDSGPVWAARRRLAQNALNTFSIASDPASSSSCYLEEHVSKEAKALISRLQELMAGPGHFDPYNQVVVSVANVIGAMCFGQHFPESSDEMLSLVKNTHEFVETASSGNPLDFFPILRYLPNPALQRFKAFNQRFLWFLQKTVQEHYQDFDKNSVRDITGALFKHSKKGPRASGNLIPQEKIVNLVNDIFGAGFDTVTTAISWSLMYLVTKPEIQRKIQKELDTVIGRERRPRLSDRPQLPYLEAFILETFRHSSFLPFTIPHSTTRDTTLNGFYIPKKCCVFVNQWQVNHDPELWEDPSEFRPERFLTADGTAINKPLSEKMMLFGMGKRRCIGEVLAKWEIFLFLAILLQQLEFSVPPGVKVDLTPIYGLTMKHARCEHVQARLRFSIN

[43] = tested on: healthy adult subjects; assay: QT/QTc double-blind placebo- and positive-controlled crossover trial; assay type: in vivo, human; conditions: 400 mg, single oral dose
Protocol: The effects of Promacta® at doses up to 150 mg daily for 5 days (supratherapeutic doses) on the QT/QTc interval was evaluated in a double-blind, randomized, placebo- and positive-controlled (moxifloxacin 400 mg, single oral dose) crossover trial in healthy adult subjects.

CC1=NN(c2ccc(C)c(C)c2)C(=O)/C1=N\Nc1cccc(-c2cccc(C(=O)O)c2)c1O.NCCO.NCCO [Eltrombopag olamine, 3′-{(2Z)-2-[1-(3,4-dimethylphenyl)-3-methyl-5-oxo-1,5-dihydro-4H-pyrazol-4-ylidene]hydrazino}-2′-hydroxy-3-biphenylcarboxylic acid-2-aminoethanol (1:2)]
solubility in water [1]: sparingly soluble | solubility in aqueous buffer ([1]; pH range of 1 to 7.4): practically insoluble

CC1=NN(c2ccc(C)c(C)c2)C(=O)/C1=N\Nc1cccc(-c2cccc(C(=O)O)c2)c1O [eltrombopag, 3′-[(2Z)-[1-(3,4-dimethylphenyl)-1,5-dihydro-3-methyl-5-oxo-4H-pyrazol-4-ylidene]hydrazino]-2′-hydroxy-[1,1′-biphenyl]-3-carboxylic acid]
mutagenicity/clastogenicity [2]: not mutagenic or clastogenic | substrate for OATP1B1 [3]: not a substrate | mouse lymphoma assay result ([4]; in vitro): marginally positive | increase in mutation frequency ([4]; in vitro mouse lymphoma assay): < 3 fold | fetotoxicity, embryolethality, or teratogenicity [5]: no evidence of fetotoxicity, embryolethality, or teratogenicity | mutagenicity/clastogenicity [6]: not mutagenic or clastogenic | photoclastogenicity in vitro [7]: photoclastogenic | phototoxicity in vitro [7]: phototoxic | drug concentrations at which photoclastogenic effects were observed ([7]; cytotoxic concentrations, UV 30 MED): ≥ 15000 ng/mL | photoclastogenicity in vitro at lower UV exposure ([7]; up to 58.4 mcg/mL, UV 15 MED): No evidence of in vitro photoclastogenicity | liver finding [8]: hepatocellular hypertrophy | inhibition of OATP1B1 [9]: inhibitor | photo-ocular toxicity [10]: no evidence | early embryonic development findings [11]: Increased pre- and post-implantation loss and reduced fetal weight | photo-ocular toxicity [12]: no evidence | mutagenicity/clastogenicity [13]: not mutagenic or clastogenic | liver finding [14]: hepatocellular hypertrophy | renal tubular effects after 13 weeks [14]: No similar effects were observed | renal tubular toxicity [14]: Renal tubular toxicity was observed | duration of dosing after which cataracts were observed ([14]; 6 weeks): 6 weeks | duration of dosing after which cataracts were observed ([14]; 13 weeks): 13 weeks | female fertility ([15]; doses up to 20 mg/kg/day (2 times human clinical exposure, AUC)): did not affect female fertility | male fertility ([15]; doses up to 40 mg/kg/day, highest dose tested (5 times human clinical exposure, AUC)): did not affect male fertility | role of UGT1A1 in glucuronidation [16]: responsible | plasma exposure higher than in non-Asian subjects ([17]; East Asian subjects with ITP): approximately 70% | systemic exposure higher ([17]; healthy African-American subjects): approximately 40% | apparent clearance greater in males than females ([17]; population PK model, adjusted for body weight): 27% | embryofetal findings [18]: Decreased fetal weights and a slight increase in the presence of cervical ribs | major structural malformations [18]: no evidence of major structural malformations | in vivo cutaneous phototoxicity [19]: no evidence | liver finding [20]: hepatocellular hypertrophy | liver finding (vacuolation) [20]: hepatocellular vacuolation | duration of dosing after which cataracts were observed ([20]; 28 weeks): 28 weeks | duration of dosing after which cataracts were observed ([20]; 39 weeks): 39 weeks | dose found in the urine ([21]; % of dose): 31% | excretion via feces ([21]; % of dose): 59% | unchanged eltrombopag in feces ([21]; % of dose): approximately 20% | extent of metabolism ([21]; cleavage, oxidation, conjugation): extensively metabolized | share of plasma radiocarbon AUC0-∞ ([21]; human radiolabel study): approximately 64% | renal excretion ([21]; human, in vivo): not significantly renally excreted | unchanged eltrombopag in urine ([21]; human, in vivo): not detectable | time of peak concentration after oral administration ([21]; human, in vivo, po): 2 to 6 h | half-life ([21]; human, ITP patients): 26 to 35 h | half-life ([21]; human, healthy subjects): 21 to 32 h | concentration in blood cells as % of plasma concentrations ([21]; radiolabel study): 50-79% | oral absorption of drug-related material ([21]; single 75 mg solution dose, from urinary excretion and fecal biotransformation products): at least 52% | role of CYP2C8 in oxidative metabolism [22]: responsible; also recorded: involved | decrease of Cmax with food [23]: 65% | decrease of plasma AUC0-∞ with food [23]: approximately 59% | exposure at the lowest dose relative to human clinical exposure based on AUC [24]: 1.4 times | platelet production [25]: does not stimulate platelet production | plasma protein binding [26]: highly bound to plasma proteins | bound to human plasma proteins ([26]; in vitro): > 99% | platelet production [27]: does not stimulate platelet production | substrate for p-glycoprotein (Pgp) [28]: not a substrate | inhibition of CYP2C9 [29]: inhibitor | plasma concentrations in pups versus dose ([30]; 0.8 and 2 times human clinical exposure (AUC), drug given to F0 dams): increased with dose | presence in plasma of offspring (F1) ([30]; after administration to F0 dams): detected | effects on maternal reproductive function or development of offspring (F1) ([30]; doses up to 2 times human clinical exposure (AUC)): no adverse effects | cataracts [31]: Cataracts were not observed | liver finding [31]: hepatocellular hypertrophy | renal tubular toxicity [31]: Renal tubular toxicity was not observed | inhibition of UGT1A4 [32]: inhibitor | inhibition of UGT1A9 [33]: inhibitor | inhibition of UGT1A1 [34]: inhibitor | inhibition of UGT1A6 [35]: inhibitor | inhibition of UGT2B15 [36]: inhibitor | inhibition of UGT1A3 [37]: inhibitor | inhibition of UGT2B7 [38]: inhibitor | platelet production [39]: does not stimulate platelet production | role of UGT1A3 in glucuronidation [40]: responsible | inhibition of CYP2C8 [41]: inhibitor | role of CYP1A2 in oxidative metabolism [42]: responsible; also recorded: involved

COc1c(N2C[C@@H]3CCCN[C@@H]3C2)c(F)cc2c(=O)c(C(=O)O)cn(C3CC3)c12 [moxifloxacin]
QTc effect of positive control [43]: significant QTc prolongation
